Data as given in ChEMBL document CHEMBL2375327, “Carbonic anhydrase inhibitors: inhibition of the β-class enzyme from the pathogenic yeast Candida glabrata with sulfonamides, sulfamates and sulfamides” (Bioorg Med Chem Lett, 2013).
pKi: −log10 of the molar value.

Experiments:
Carbonic anhydrase [1] = biological target: T1, Carbonic anhydrase (Candida albicans (strain SC5314 / ATCC MYA-2876) (Yeast), UniProt Q5AJ71)
T1 sequence (Q5AJ71 whole entry): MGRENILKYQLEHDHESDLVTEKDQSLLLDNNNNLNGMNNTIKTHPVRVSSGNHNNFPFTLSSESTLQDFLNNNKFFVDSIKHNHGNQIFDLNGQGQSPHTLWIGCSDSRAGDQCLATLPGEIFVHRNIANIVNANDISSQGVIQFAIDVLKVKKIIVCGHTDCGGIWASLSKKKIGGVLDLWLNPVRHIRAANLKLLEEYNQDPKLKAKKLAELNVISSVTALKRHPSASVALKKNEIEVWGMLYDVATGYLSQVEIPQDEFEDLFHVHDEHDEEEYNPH

Carbonic anhydrase [2] = biological target: T2, Carbonic anhydrase (Candida glabrata CBS 138, UniProt Q6FTL6); set-up: species or system Nakaseomyces glabratus
T2 sequence (Q6FTL6 whole entry): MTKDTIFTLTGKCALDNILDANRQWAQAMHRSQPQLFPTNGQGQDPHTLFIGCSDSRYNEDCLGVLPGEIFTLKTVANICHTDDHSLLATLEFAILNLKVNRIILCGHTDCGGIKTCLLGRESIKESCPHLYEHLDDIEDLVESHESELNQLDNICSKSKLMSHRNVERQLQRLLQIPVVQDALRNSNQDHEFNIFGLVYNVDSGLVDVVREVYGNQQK

[3] = Selectivity ratio of Ki for human carbonic anhydrase-2 to Ki for recombinant full length Candida glabrata NCE103
Carbonic anhydrase 2 = Carbonic anhydrase 2 (Homo sapiens, UniProt P00918); experiment: Inhibition of human carbonic anhydrase-2 preincubated for 15 mins by stopped-flow CO2 hydrase assay

SMILES	pKi (Carbonic anhydrase [1])	pKi (Carbonic anhydrase [2]; read-out: Ki)	also measured
NS(=O)(=O)Oc1ccc(NC(=O)Nc2c(F)cc(F)cc2Br)cc1	7.08	8.30	–
NS(=O)(=O)c1ccc(NC(=O)Nc2ccc(Br)cc2)cc1	–	8.27	–
NS(=O)(=O)c1ccc(CO)cc1	–	7.21	–
CC(C)c1ccccc1NC(=O)Nc1ccc(NS(N)(=O)=O)cc1	7.26	7.47	–
CCOc1ccc2nc(S(N)(=O)=O)sc2c1 [ETHOXZOLAMIDE]	–	5.51	–
NS(=O)(=O)c1ccc(NC(=O)Nc2cccc([N+](=O)[O-])c2)cc1	–	8.21	–
NS(=O)(=O)Oc1ccc(NC(=O)Nc2ccccc2)cc1	–	8.02	–
Nc1ccc(S(N)(=O)=O)cc1Br	–	6.96	–
NS(=O)(=O)c1ccc(NC(=O)Nc2ccc(Cl)cc2)cc1	–	8.15	–
Nc1ccc(S(N)(=O)=O)cc1F	–	7.01	–
NS(=O)(=O)Oc1ccc(NC(=O)NCCc2ccccc2)cc1	6.88	8.12	–
NCc1ccc(S(N)(=O)=O)cc1 [MAFENIDE]	–	6.06	–
NCCc1ccc(S(N)(=O)=O)cc1	–	6.26	–
NS(=O)(=O)Nc1ccc(NC(=O)NCc2ccccc2)cc1	6.84	7.61	–
NS(=O)(=O)Oc1ccc(NC(=O)Nc2ccc(C(F)(F)F)c(C(F)(F)F)c2C(F)(F)F)cc1	7.12	8.24	–
CC1(C)O[C@@H]2[C@@H](CO[C@@]3(COS(N)(=O)=O)OC(C)(C)O[C@@H]23)O1 [TOPIRAMATE]	–	6.96	–
NS(=O)(=O)Oc1ccc(NC(=O)Nc2ccc(Cl)cc2)cc1	6.30	8.03	–
NS(=O)(=O)Oc1ccc(NC(=O)Nc2cccc3ccccc23)cc1	5.84	7.05	–
NS(=O)(=O)Oc1ccc(NC(=O)Nc2ccc([N+](=O)[O-])cc2)cc1	6.97	8.19	–
CCCCOc1ccc(NC(=O)Nc2ccc(NS(N)(=O)=O)cc2)cc1	6.87	7.86	–
NS(=O)(=O)Nc1ccc(NC(=O)NC2CCCCC2)cc1	6.87	7.10	–
NS(=O)(=O)c1nnc(NS(=O)(=O)c2ccccc2)s1 [BENZOLAMIDE]	–	6.02	–
Nc1ccc(S(=O)(=O)NCCc2ccc(S(N)(=O)=O)cc2)cc1	–	7.01	–
NS(=O)(=O)Nc1ccc(NC(=O)NCc2ccco2)cc1	7.24	7.62	–
NS(=O)(=O)c1ccc(C(=O)O)cc1 [CARZENIDE]	–	7.28	–
NS(=O)(=O)Nc1ccc(NC(=O)Nc2ccc(Cl)cc2)cc1	6.99	8.26	Ratio Ki [3]: 57
NS(=O)(=O)c1ccc(NC(=O)NCCc2ccccc2)cc1	6.91	7.25	pKi (Carbonic anhydrase 2): 6.18

SMILES	pKi (Carbonic anhydrase [1])	pKi (Carbonic anhydrase [2]; read-out: Ki)	also measured
NS(=O)(=O)c1nnc(-c2ccccc2Cl)s1	–	6.38	–
Nc1nnc(S(N)(=O)=O)s1	–	7.02	–
Nc1nccc(Nc2ccc(S(N)(=O)=O)cc2)n1	–	7.08	–
NS(=O)(=O)Nc1ccc(NC(=O)Nc2ccccc2-c2ccccc2)cc1	7.14	8.17	–
NS(=O)(=O)c1ccc(S(=O)(=O)Nc2cccc3c(Cl)c[nH]c23)cc1	–	7.03	–
Cc1ccc(S(N)(=O)=O)cc1 [P-TOLUENESULFONAMIDE]	–	6.07	–
Nc1cc(C(F)(F)F)c(S(N)(=O)=O)cc1S(N)(=O)=O	–	7.01	–
Cc1cc(C)cc(NC(=O)Nc2ccc(NS(N)(=O)=O)cc2)c1	6.86	8.07	–
N#Cc1ccccc1NC(=O)Nc1ccc(OS(N)(=O)=O)cc1	6.81	7.05	–
Nc1ccc(S(N)(=O)=O)cc1Cl	–	7.01	–
NS(=O)(=O)Oc1ccc(NC(=O)Nc2cccc(Cl)c2)cc1	6.91	7.05	–
Nc1ccc(S(=O)(=O)Nc2nnc(S(N)(=O)=O)s2)cc1	–	6.97	–
Nc1ccc(S(N)(=O)=O)cc1 [SULFANILAMIDE]	–	5.10	–
NS(=O)(=O)c1ccc(NC(=O)Nc2ccccc2)cc1	–	7.14	–
NS(=O)(=O)c1ccc(NC(=O)NCc2ccccc2)cc1	–	7.09	–
NS(=O)(=O)c1ccc(CCO)cc1	–	7.32	–
Cn1nc(S(N)(=O)=O)sc1=N	–	6.10	–
Nc1ccc(S(N)(=O)=O)cc1I	–	–	pKi (Carbonic anhydrase [2]): 6.89
NS(=O)(=O)Nc1ccc(NC(=O)NCCc2ccccc2)cc1	6.89	7.82	–
Cc1onc(-c2ccccc2)c1-c1ccc(S(N)(=O)=O)cc1 [VALDECOXIB]	–	7.01	–
CCN[C@H]1CN(CCCOC)S(=O)(=O)c2sc(S(N)(=O)=O)cc21 [BRINZOLAMIDE]	–	5.36	–
NS(=O)(=O)Oc1ccc(NC(=O)Nc2ccc3c(c2)Cc2ccccc2-3)cc1	7.12	6.94	–
NS(=O)(=O)Oc1ccc(NC(=O)NCc2ccccc2)cc1	6.86	8.08	pKi (Carbonic anhydrase 2): 6.56
Nc1cc(Cl)c(S(N)(=O)=O)cc1S(N)(=O)=O	–	7.07	–
Nc1ccc(S(=O)(=O)NCc2ccc(S(N)(=O)=O)cc2)cc1	–	6.97	–
NS(=O)(=O)Nc1ccc(NC(=O)Nc2cccc([N+](=O)[O-])c2)cc1	6.96	8.39	–
Cc1ccc(-c2cc(C(F)(F)F)nn2-c2ccc(S(N)(=O)=O)cc2)cc1 [CELECOXIB]	–	6.94	–
